Assays:
CREB-binding protein = CREB-binding protein (Homo sapiens, UniProt Q92793); test: Binding affinity to biotinylated CREBBP (1043 to 1159 amino acid residues) (unknown origin) expressed in Rosetta2 DE3 cells by bio-layer interferometry method
[1] = target: T1, ATPase family AAA domain-containing protein 2 (Homo sapiens, UniProt Q6PL18); test: Binding affinity to biotinylated ATAD2A (981 to 1108 amino acid residues) (unknown origin) expressed in Rosetta2 DE3 cells by bio-layer interferometry method
T1 sequence (Q6PL18 whole entry): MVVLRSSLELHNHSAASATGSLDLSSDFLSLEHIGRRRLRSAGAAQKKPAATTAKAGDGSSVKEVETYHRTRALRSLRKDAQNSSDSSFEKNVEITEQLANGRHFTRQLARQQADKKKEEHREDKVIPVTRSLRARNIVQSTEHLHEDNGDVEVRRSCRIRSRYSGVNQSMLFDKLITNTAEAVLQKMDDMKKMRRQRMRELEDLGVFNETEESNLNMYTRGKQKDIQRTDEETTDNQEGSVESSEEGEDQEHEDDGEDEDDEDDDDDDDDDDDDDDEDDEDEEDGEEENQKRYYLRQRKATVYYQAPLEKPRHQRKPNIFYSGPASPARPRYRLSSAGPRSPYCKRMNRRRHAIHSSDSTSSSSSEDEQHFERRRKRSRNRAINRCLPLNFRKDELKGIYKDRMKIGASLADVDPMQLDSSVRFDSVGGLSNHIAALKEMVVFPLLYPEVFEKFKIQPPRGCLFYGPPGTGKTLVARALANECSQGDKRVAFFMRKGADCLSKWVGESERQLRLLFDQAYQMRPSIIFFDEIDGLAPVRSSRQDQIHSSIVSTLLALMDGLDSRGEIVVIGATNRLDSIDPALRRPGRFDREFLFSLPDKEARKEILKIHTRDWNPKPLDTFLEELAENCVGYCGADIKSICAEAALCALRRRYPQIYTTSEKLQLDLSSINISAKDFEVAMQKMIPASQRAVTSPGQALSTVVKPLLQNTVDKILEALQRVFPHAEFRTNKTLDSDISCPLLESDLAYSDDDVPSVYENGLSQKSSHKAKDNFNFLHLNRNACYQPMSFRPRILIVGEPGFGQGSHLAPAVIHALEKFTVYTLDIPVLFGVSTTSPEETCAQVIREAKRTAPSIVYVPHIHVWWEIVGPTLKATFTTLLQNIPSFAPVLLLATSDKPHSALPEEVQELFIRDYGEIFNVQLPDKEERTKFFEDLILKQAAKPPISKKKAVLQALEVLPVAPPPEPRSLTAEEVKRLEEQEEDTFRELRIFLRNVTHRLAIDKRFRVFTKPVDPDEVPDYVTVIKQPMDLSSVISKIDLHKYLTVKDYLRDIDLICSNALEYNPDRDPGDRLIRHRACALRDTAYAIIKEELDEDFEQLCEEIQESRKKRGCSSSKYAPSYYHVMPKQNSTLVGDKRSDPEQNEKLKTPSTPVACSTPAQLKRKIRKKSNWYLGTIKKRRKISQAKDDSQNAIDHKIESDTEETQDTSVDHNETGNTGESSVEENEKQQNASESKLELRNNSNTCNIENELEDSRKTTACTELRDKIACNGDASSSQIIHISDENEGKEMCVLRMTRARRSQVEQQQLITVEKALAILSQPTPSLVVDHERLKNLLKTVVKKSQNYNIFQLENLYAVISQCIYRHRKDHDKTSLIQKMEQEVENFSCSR

[2] = target: T2, Transcription intermediary factor 1-alpha (Homo sapiens, UniProt O15164); test: Binding affinity to biotinylated TRIM24 (790 to 972 amino acid residues) (unknown origin) expressed in Rosetta2 DE3 cells by bio-layer interferometry method
T2 sequence (O15164 whole entry): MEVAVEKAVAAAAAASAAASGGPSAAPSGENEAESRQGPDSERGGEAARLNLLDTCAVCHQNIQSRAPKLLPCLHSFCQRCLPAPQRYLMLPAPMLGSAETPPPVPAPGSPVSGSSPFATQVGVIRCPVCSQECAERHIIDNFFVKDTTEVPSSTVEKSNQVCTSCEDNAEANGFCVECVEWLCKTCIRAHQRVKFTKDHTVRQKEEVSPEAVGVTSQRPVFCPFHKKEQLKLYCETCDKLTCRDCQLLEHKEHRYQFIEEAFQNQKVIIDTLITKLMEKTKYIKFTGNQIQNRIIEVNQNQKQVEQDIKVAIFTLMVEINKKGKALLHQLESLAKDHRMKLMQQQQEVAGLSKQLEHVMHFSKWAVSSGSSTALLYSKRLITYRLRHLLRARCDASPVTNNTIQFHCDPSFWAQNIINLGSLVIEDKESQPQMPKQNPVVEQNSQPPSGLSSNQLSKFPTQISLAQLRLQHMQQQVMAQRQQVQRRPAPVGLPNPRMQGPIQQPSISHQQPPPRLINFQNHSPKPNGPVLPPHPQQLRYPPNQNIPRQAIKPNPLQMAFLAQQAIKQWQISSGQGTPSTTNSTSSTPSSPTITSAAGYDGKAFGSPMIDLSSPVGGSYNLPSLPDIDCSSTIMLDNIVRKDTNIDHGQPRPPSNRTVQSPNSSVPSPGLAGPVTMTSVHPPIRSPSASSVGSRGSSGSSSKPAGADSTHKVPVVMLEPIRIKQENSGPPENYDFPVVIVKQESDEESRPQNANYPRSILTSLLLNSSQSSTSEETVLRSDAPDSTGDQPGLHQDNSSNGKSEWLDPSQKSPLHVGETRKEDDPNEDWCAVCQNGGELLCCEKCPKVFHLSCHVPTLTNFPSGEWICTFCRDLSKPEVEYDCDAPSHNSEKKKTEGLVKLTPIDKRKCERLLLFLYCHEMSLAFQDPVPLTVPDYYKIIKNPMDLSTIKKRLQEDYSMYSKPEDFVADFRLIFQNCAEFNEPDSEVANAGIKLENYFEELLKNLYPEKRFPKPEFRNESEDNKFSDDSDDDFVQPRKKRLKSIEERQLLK

[3] = target: Bromodomain adjacent to zinc finger domain protein 2B (Homo sapiens, UniProt Q9UIF8); test: Binding affinity to biotinylated BAZ2B (2054 to 2168 amino acid residues) (unknown origin) expressed in Rosetta2 DE3 cells by bio-layer interferometry method
[4] = target: Histone-lysine N-methyltransferase 2A (Homo sapiens, UniProt Q03164); test: Binding affinity to biotinylated MLL1 (1566 to 1784 amino acid residues) (unknown origin) expressed in Rosetta2 cells by bio-layer interferometry method
[5] = target: Bromodomain-containing protein 4 (Homo sapiens, UniProt O60885); test: Displacement of FAM-labeled ZBA248 from BRD4 BD2 (333 to 460 amino acid residues) (unknown origin) expressed in Rosetta2 DE3 cells after 30 mins by fluorescence polarization assay
[6] = target: Bromodomain-containing protein 2 (Homo sapiens, UniProt P25440); test: Displacement of FAM-labeled ZBA248 from BRD2 BD2 (349 to 460 amino acid residues) (unknown origin) expressed in Rosetta2 DE3 cells after 30 mins by fluorescence polarization assay
Bromodomain-containing protein 2, sequence (P25440 whole entry, the tested form may be a part): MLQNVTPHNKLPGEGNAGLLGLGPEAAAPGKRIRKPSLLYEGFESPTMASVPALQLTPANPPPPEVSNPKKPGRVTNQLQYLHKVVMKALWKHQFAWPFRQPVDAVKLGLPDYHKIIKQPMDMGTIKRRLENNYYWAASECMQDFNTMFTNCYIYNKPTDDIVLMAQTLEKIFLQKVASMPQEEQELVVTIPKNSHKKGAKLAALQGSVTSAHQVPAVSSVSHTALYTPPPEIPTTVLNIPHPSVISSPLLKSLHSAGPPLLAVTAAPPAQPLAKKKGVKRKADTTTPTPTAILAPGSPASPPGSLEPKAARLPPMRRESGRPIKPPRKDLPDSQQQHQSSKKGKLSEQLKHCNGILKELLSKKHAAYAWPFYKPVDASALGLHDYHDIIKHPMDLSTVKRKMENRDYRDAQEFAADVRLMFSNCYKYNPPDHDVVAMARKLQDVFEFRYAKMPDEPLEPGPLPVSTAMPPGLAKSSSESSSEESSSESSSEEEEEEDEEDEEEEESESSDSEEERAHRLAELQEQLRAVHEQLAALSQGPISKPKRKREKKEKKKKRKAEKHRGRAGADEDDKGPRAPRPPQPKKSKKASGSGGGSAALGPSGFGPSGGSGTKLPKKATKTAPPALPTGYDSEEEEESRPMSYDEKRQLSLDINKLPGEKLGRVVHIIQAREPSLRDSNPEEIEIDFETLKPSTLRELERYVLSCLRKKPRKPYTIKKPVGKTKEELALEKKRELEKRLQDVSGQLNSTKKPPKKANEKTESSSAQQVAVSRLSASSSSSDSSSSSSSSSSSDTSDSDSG

CREB-binding protein, sequence (Q92793 whole entry, the tested form may be a part): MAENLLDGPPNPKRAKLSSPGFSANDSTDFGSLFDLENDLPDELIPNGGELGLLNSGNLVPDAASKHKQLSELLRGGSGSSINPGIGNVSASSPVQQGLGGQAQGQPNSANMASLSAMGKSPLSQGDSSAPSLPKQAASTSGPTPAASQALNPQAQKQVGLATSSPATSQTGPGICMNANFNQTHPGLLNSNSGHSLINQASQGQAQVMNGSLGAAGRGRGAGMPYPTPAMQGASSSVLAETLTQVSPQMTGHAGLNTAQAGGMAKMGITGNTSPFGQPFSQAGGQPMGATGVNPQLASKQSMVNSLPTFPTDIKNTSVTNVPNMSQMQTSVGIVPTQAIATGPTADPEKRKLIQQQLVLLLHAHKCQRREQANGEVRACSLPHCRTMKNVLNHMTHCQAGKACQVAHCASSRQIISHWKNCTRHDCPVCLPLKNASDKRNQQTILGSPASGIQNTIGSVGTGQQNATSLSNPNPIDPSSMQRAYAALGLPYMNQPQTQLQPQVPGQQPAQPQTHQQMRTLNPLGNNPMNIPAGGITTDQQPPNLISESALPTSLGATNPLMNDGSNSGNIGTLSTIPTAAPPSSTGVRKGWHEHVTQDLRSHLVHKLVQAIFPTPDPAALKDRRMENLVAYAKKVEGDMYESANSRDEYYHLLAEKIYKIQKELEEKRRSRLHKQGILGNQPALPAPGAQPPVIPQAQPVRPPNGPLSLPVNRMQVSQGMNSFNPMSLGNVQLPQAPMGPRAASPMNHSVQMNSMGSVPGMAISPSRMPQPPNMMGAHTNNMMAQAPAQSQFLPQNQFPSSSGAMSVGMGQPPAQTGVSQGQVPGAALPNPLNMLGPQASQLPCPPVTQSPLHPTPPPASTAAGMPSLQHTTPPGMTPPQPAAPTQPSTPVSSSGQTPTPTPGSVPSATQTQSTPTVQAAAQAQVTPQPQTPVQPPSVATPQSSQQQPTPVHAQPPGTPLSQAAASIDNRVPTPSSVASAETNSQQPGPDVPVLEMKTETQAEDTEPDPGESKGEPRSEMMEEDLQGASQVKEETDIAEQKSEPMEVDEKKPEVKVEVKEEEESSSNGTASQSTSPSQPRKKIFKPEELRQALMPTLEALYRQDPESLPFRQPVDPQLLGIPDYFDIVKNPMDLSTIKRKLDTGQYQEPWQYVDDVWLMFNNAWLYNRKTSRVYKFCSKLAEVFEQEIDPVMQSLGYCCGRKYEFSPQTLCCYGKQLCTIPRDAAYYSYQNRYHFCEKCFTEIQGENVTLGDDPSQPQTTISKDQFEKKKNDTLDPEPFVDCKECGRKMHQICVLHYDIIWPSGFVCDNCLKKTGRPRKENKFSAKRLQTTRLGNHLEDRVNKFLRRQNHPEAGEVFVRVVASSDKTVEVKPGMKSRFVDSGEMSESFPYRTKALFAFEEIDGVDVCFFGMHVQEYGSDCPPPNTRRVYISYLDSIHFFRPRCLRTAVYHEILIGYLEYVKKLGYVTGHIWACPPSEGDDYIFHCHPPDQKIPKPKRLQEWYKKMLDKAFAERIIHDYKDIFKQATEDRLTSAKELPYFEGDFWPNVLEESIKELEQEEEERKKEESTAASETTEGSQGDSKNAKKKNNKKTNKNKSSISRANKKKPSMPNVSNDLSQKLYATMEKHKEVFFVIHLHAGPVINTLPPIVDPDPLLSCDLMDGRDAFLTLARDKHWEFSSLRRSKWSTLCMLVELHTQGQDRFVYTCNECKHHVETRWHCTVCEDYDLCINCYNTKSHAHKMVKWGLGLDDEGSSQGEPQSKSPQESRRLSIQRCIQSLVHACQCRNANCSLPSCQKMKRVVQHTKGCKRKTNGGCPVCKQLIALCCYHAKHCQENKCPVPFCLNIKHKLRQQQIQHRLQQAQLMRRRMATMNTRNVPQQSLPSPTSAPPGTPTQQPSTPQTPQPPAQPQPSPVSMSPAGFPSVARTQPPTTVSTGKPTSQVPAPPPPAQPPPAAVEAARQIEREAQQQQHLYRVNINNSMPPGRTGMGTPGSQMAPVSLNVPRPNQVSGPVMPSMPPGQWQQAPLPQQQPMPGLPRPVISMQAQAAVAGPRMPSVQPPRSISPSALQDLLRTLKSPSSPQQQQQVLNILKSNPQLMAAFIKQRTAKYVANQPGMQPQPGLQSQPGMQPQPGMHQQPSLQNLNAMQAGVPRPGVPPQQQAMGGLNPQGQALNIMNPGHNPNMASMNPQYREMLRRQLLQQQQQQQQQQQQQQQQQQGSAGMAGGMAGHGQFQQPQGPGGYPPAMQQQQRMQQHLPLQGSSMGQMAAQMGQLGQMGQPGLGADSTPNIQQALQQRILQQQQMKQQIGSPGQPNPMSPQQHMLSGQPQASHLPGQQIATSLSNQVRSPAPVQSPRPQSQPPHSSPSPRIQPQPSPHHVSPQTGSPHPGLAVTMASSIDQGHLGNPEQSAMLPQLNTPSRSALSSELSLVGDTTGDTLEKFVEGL

## COc1cc2c(cc1-c1c(C)noc1C)[nH]c1ccnc(-c3c(C4CC4)n[nH]c3C)c12
CREB-binding protein
  Kd: 670 nM
[1]
  Kd: > 10000 nM
[2]
  Kd: 10000 nM
[3]
  Kd: > 10000 nM
[4]
  Kd: 9500 nM
[5]
  IC50: 36.5 nM
  Ki: 12.2 nM
[6]
  Ki: 11.7 nM
